The text below walks through data of patent US12421230B2, “Tricyclic heteroaryl compounds useful as IRAK4 inhibitors” (BRISTOL-MYERS SQUIBB COMPANY, priority 2020, dated 2025).

The target in the assay is T1, IRAK4 (Homo sapiens, UniProt Q9NWZ3).
T1 sequence (Q9NWZ3 1-460): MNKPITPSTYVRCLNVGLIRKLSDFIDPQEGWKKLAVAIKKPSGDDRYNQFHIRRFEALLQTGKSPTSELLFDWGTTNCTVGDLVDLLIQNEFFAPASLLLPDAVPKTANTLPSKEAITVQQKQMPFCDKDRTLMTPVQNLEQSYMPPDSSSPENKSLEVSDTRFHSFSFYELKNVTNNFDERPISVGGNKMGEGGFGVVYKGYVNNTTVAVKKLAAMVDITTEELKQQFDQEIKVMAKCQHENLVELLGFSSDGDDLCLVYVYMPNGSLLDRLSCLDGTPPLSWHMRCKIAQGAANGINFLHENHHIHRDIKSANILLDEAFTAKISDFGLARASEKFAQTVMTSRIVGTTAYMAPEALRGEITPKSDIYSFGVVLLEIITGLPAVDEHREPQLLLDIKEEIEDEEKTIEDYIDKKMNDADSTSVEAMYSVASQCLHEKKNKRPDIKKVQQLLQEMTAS
In words: IRAK4 Inhibition Assay. In kind it is biochemical. The conditions noted are these: ATP 500 μM; fluoresceinated peptide 1.5 μM; IRAK4 0.6 nM; 60 min room temperature; Caliper LABCHIP. The method, then:
The assays were performed in U-bottom 384-well plates. The final assay volume was 30 μL prepared from 15 μL additions of enzyme and substrates (fluoresceinated peptide and ATP) and test compounds in assay buffer (20 mM HEPES pH 7.2, 10 mM MgCl2, 0.015% Brij 35 and 4 mM DTT). The reaction was initiated by the combination of IRAK4 with substrates and test compounds. The reaction mixture was incubated at room temperature for 60 min. and terminated by adding 45 μL of 35 mM EDTA to each sample. The reaction mixture was analyzed on the Caliper LABCHIP® 3000 (Caliper, Hopkinton, MA) by electrophoretic separation of the fluorescent substrate and phosphorylated product. Inhibition data were calculated by comparison to no enzyme control reactions for 100% inhibition and vehicle-only reactions for 0% inhibition. The final concentrations of reagents in the assays are ATP, 500 μM; FL-IPTSPITTTYFFFKKK peptide 1.5 μM; IRAK4, 0.6 nM; and DMSO, 1.6%.

Molecules are shown by their SMILES. Where a name gives a salt, the structure may show the parent alone.

By IC50 is commonly meant the concentration that inhibits the measured activity by half. Turning to `CC(C)(O)[C@H](F)CNC(=O)c1cnc2c([nH]c3cc(C#N)ccc32)c1NC1CCN(S(C)(=O)=O)CC1` [Example 64, (R)-7-cyano-N-(2-fluoro-3-hydroxy-3-methylbutyl)-4-((1-(methylsulfonyl)piperidin-4-yl)amino)-5H-pyrido[3,2-b]indole-3-carboxamide], the IC50 was 53 nM.
Turning to `CC(C)Nc1c(C(=O)NCC2(CO)CC2)cnc2c1[nH]c1cc(C#N)ccc12` [Example 8, 7-cyano-N-((1-(hydroxymethyl)cyclopropyl)methyl)-4-(isopropylamino)-5H-pyrido[3,2-b]indole-3-carboxamide], the IC50 is 330 nM.
The same measure for `CC(C)Nc1c(C(=O)NC2CCOCC2)cnc2c1[nH]c1cc(C#N)ccc12` [Example 11, 7-cyano-4-(isopropylamino)-N-(tetrahydro-2H-pyran-4-yl)-5H-pyrido[3,2-b]indole-3-carboxamide]: 27 nM; for `CC(C)Nc1c(C(=O)NC[C@@H](F)C(C)(C)O)cnc2c1[nH]c1cc(C#N)cnc12` [Example 69, (R)-7-cyano-N-(2-fluoro-3-hydroxy-3-methylbutyl)-4-(isopropylamino)-5H-pyrrolo [3,2-b:4,5-b′]dipyridine-3-carboxamide]: 540 nM; for `CCCc1noc(-c2cnc3c([nH]c4cc(C#N)ccc43)c2NC(C)C)n1` [Example 72, 4-(isopropylamino)-3-(3-propyl-1,2,4-oxadiazol-5-yl)-5H-pyrido[3,2-b]indole-7-carbonitrile]: 360 nM.
On to `CC(C)(O)CCNC(=O)c1cnc2c([nH]c3cc(C#N)ccc32)c1NCC(F)(F)F` [Example 37, 7-cyano-N-(3-hydroxy-3-methylbutyl)-4-((2,2,2-trifluoroethyl)amino)-5H-pyrido[3,2-b]indole-3-carboxamide], for which the IC50 stood at 14 nM.
Consider `CC(C)Nc1c(C(=O)NC2CCNCC2)cnc2c1[nH]c1cc(C#N)ccc12` [Example 19, 7-cyano (isopropylamino)-N-(piperidin-4-yl)-5H-pyrido[3,2-b]indole-3-carboxamide], for which the IC50 came out at 20 nM.
For the compound `CCNc1c(C(=O)NCCC2CCCNC2)cnc2c1[nH]c1cc(C#N)ccc12` (centres unmarked) [Example 55, 7-cyano-4-(ethylamino)-N-(2-(piperidin-3-yl)ethyl)-5H-pyrido[3,2-b]indole-3-carboxamide], the IC50 is 2.8 nM.
In the case of `CCCc1nc(-c2cnc3c([nH]c4cc(C#N)ccc43)c2NC(C)C)n[nH]1` [Example 71, 4-(isopropylamino)-3-(5-propyl-1H-1,2,4-triazol-3-yl)-5H-pyrido[3,2-b]indole carbonitrile], the IC50 was determined as 500 nM.
Turning to `CC(C)(O)CCNC(=O)c1cnc2c([nH]c3cc(C#N)ccc32)c1NCC1CC1` [Example 33, 7-cyano-4-((cyclopropylmethyl)amino)-N-(3-hydroxy-3-methylbutyl)-5H-pyrido[3,2-b] indole-3-carboxamide], the IC50 was determined as 30.8 nM.
To `CC(C)Nc1c(C(=O)NC[C@@H](F)C(C)(C)O)cnc2c1[nH]c1cc(-c3ccc(=O)[nH]c3)ccc12` [Example 68, (R)—N-(2-fluoro-3-hydroxymethylbutyl)-4-(isopropylamino)-7-(6-oxo-1,6-dihydropyridin-3-yl)-5H-pyrido[3,2-b]indole-3-carboxamide] belongs 580 nM; to `CC(C)Cc1nc(-c2cnc3c([nH]c4cc(C#N)ccc43)c2NC(C)C)n[nH]1` [Example 70, 3-(5-isobutyl-1H-1,2,4-triazol-3-yl)-4-(isopropylamino)-5H-pyrido[3,2-b]indole-7-carbonitrile, TFA], 1700 nM.
For `CC(C)Nc1c(C(=O)NC[C@@H](F)C(C)(C)O)cnc2c1[nH]c1cc(-c3cn[nH]c3)ccc12` [Example 67, (R)—N-(2-fluoro-3-hydroxy-3-methylbutyl)-4-(isopropylamino)-7-(1H-pyrazol-4-yl)-5H-pyrido[3,2-b]indole-3-carboxamide], the IC50 is 30 nM.
With `CC(C)Nc1c(-c2cc(C3CCCNC3)no2)cnc2c1[nH]c1cc(C#N)ccc12` (centres unmarked) [Example 79, 4-(isopropylamino)-3-(3-(piperidin-3-yl)isoxazol-5-yl)-5H-pyrido[3,2-b]indole-7-carbonitrile], the IC50 came to 22 nM.
Consider `C[C@H](Nc1c(C(=O)NCCC(C)(C)O)cnc2c1[nH]c1cc(C#N)ccc12)C1CC1` [Example 29, (S)-7-cyano-4-((1-cyclopropylethyl)amino)-N-(3-hydroxy-3-methylbutyl)-5H-pyrido[3,2-b]indole-3-carboxamide], for which the IC50 stood at 11 nM.
Consider `CC(C)Nc1c(C(=O)NCC2(CO)COC2)cnc2c1[nH]c1cc(C#N)ccc12` [Example 7, 7-cyano-N-((3-(hydroxymethyl)oxetan-3-yl)methyl)-4-(isopropylamino)-5H-pyrido[3,2-b]indole-3-carboxamide], for which the IC50 was found to be 170 nM.
On to `CC(C)Nc1c(C(=O)NC2CCCOC2)cnc2c1[nH]c1cc(C#N)ccc12` (centres unmarked) [Example 6, 7-cyano-4-(isopropylamino)-N-(tetrahydro-2H-pyran-3-yl)-5H-pyrido[3,2-b]indole-3-carboxamide], for which the IC50 was 37 nM.
On to `CC(C)Nc1c(C(=O)NCCc2nnn[nH]2)cnc2c1[nH]c1cc(C#N)ccc12` [Example 65, N-(2-(1H-tetrazol-5-yl)ethyl)-7-cyano-4-(isopropylamino)-5H-pyrido[3,2-b]indole-3-carboxamide], for which the IC50 stood at 100 nM.
To `N#Cc1ccc2c(c1)[nH]c1c(NC3CC3)c(C(=O)N[C@H]3C[C@H](O)C3)cnc12` [Example 45, 7-cyano (cyclopropylamino)-N-((1R,3R)-3-hydroxycyclobutyl)-5H-pyrido[3,2-b]indole carboxamide] belongs 33 nM; to `CC(C)Nc1c(-c2cc(C3CNCCO3)no2)cnc2c1[nH]c1cc(C#N)ccc12` (centres unmarked) [Example 78, 4-(isopropylamino)-3-(3-(morpholin-2-yl)isoxazol-5-yl)-5H-pyrido[3,2-b]indole-7-carbonitrile], 26 nM; to `CC(C)Nc1c(C(=O)NCC(C)(C)CO)cnc2c1[nH]c1cc(C#N)ccc12` [Example 9, 7-cyano-N-(3-hydroxy-2,2-dimethylpropyl)-4-(isopropylamino)-5H-pyrido[3,2-b]indole-3-carboxamide], 330 nM.
To `CC(C)(O)CCNC(=O)c1cnc2c([nH]c3cc(C#N)ccc32)c1NC1COC1` [Example 41, 7-cyano-N-(3-hydroxy-3-methylbutyl) (oxetan-3-ylamino)-5H-pyrido[3,2-b]indole-3-carboxamide] belongs 9.2 nM; to `COC(=O)N[C@H]1C[C@H](NC(=O)c2cnc3c([nH]c4cc(C#N)ccc43)c2NC(C)C)C1` [Example 50, methyl ((1R,3R)-3-(7-cyano-4-(isopropylamino)-5H-pyrido[3,2-b]indole-3-carboxamido)cyclobutyl)carbamate], 33 nM.
